Like-named read-outs stand apart in the source and are kept apart here.
Tests used:
Assay type in all cases: in vivo
[1] = system: arachidonic acid induced ear swelling; assay: Topical arachidonic acid induced ear swelling model in mice; conditions: 30 min before and 15 min after arachidonic acid, measured at 90 minutes
Procedure: Purified 3-methanesulfonylpropionitrile was dissolved in vehicle (ethanol/acetone 1:1) to 5% (w/v). The active compound, indomethacin (positive control in vehicle), and vehicle were topically applied to mice and evaluated for anti-inflammatory activity in the topical arachidonic acid induced ear swelling model in mice, which is a model of irritant contact dermatitis.
Male ICR mice weighing 22±2 g were used and randomly divided; each group had 10 mice. Arachidonic Acid (0.5 mg in 20 μl of acetone:ethanol/1:1) was applied topically to the anterior and posterior surfaces of the right ear of each mice. Test substance and vehicle, as listed in Table 3 were similarly applied 30 min before and 15 min after arachidonic acid application. The thickness of the right ear and the left ear was measured and the difference calculated as an indication of the inflammation in the right ear. Ear swelling was measured by a Dyer model micrometer gauge at 60 and 90 minutes after arachidonic acid application as an index of inflammation. Percent inhibition was calculated according to the formula: Ic−It/Ic×100, where Ic and It refers to increase of ear thickness (mm) in control and treated mice, respectively. ANOVA and Dunnett's test were employed to ascertain significant difference between vehicle control and treated groups. Significance is set at P<0.05 level.

[2] = Systemic (plasma) exposure after oral and subcutaneous administration to rats
Procedure: This study was done to determine the systemic (plasma) exposure of MSPN after administration by the oral and subcutaneous routes to rats.
MSPN substance was prepared in water for oral administration and in saline for subcutaneous administration. Rats weighed 282 to 295 g were used in the study. Male rats (n=2) were given a single dose at 50, 160 or 500 mg/kg by both oral and subcutaneous routes. Female rats (n=2) were dosed only at 500 mg/kg by both oral and subcutaneous routes. The blood was drawn from each rat at 0.25, 1, 2, 3, 4, 6, 12, 24, and 48 hours and measured for MSPN concentration by LC/MS/MS.

rats = assay: Oral systemic toxicity in rats
dogs = assay: Oral systemic toxicity in dogs
[3] = decreased body temperature, decreased respiratory rate, increased blood pressure, increased heart rate

| Structure (SMILES) | % Inhibition of ear swelling ([1]; (0.5% w/v), 0.1 mg/20 μL) [%] | Cmax ([2]; rat, plasma, 500 mg/kg, heading: average maximum plasma concentration, male rats, oral, single dose 500 mg/kg, read-out: average maximum plasma concentration (Cmax)) [µg/mL] | Cmax ([2]; rat, plasma, sc, 500 mg/kg, heading: average Cmax, female rats, subcutaneous, single dose 500 mg/kg, read-out: average Cmax) [µg/mL] | Cmax ([2]; rat, plasma, sc, male rats, subcutaneous, single dose 50 mg/kg, read-out: average maximum plasma concentration (Cmax)) [µg/mL] | Cmax ([2]; rat, plasma, sc, male rats, subcutaneous, single dose 160 mg/kg, read-out: average maximum plasma concentration (Cmax)) [µg/mL] | Cmax ([2]; rat, plasma, sc, male rats, subcutaneous, single dose 500 mg/kg, read-out: average maximum plasma concentration (Cmax)) [µg/mL] | Cmax ([2]; rat, plasma, female rats, oral, single dose 500 mg/kg, read-out: average Cmax) [µg/mL] | Cmax ([2]; rat, plasma, male rats, oral, single dose 50 mg/kg, read-out: average maximum plasma concentration (Cmax)) [µg/mL] | Cmax ([2]; rat, plasma, male rats, oral, single dose 160 mg/kg, read-out: average maximum plasma concentration (Cmax)) [µg/mL] | half-life ([2]; rat, plasma, rats, both routes (oral, subcutaneous) and both sexes, read-out: Half-lives) [min] | bioavailability ([2]; rats, after both the oral and subcutaneous routes) | % Inhibition of ear swelling ([1]; 375 mM (5% w/v), 1 mg/20 μL) [%] | doses at which effects were seen, relative to expected human therapeutic doses (rats) | effects seen after oral, systemic toxicity administration (rats; [3]) | doses at which effects were seen, relative to expected human therapeutic doses (dogs) | effects seen after oral, systemic toxicity administration (dogs; [3]) |
| --- | --- | --- | --- | --- | --- | --- | --- | --- | --- | --- | --- | --- | --- | --- | --- | --- |
| COc1ccc2c(c1)c(CC(=O)O)c(C)n2C(=O)c1ccc(Cl)cc1 [Indomethacin, indomethacin, reference compound] | 53 |  |  |  |  |  |  |  |  |  |  |  |  |  |  |  |
| CS(=O)(=O)CCC#N [MSPN, 3-methanesulfonylpropionitrile] |  | 12 | 9.5 | 160 | 760 | 3300 | 3800 | 160 | 560 | 480 to 900 | significant bioavailability | 36 | over 2000 fold | mild physiological effects | over 2000 fold | mild physiological effects |
